Data published in patent publication US9533973B2, “Allosteric modulators of 5-hydroxytryptamine 2C receptor (5-HT2CR)” (THE BOARD OF REGENTS OF THE UNIVERSITY OF TEXAS SYSTEM, priority 2011, dated 2017).
Entries after “also recorded” stand apart in the source; their conditions may differ.

Assays:
5-HT2CR = target: T1, 5-HT2CR (Homo sapiens, UniProt P28335); assay: 5-HT induced intracellular calcium (Cai++) release assay in live 5-HT2CR-CHO cells; format: cell-based; parameters: expressed in transfected cells; details: 5-HT2CR-CHO cells
T1 sequence (P28335 33-458): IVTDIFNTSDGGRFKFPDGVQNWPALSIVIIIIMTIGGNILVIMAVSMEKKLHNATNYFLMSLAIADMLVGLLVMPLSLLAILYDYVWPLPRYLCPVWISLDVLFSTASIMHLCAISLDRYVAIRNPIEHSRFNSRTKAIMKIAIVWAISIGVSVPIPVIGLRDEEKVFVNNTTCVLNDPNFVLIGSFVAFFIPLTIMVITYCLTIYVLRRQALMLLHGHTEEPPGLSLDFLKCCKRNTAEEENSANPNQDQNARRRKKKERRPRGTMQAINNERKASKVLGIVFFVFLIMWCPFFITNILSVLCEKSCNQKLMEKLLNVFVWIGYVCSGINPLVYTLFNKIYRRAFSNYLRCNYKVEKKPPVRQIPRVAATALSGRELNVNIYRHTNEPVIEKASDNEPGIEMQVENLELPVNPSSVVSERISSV
Procedure: Selected results for the biological characterization of the synthesized compounds can be found in Ding et al., ACS Chem. Neurosci., 3, 538-545, 2012, and also described herein. The biological activity is assessed using an intracellular calcium (Cai^++) release assay. The best-characterized intracellular signaling pathway of the 5-HT2CR is the activation of phospholipase C (PLCβ) via Gαq/11 proteins and the production of diacylglycerol (DAG) and inositol-1,4,5-trisphosphate (IP3), leading to increased Cai^++ release from intracellular stores (Berg et al., Neuropharmacology 55, 969-76, 2008). Functional characterization of our synthetic PNU-69176E (CYD-1-78-2) and its diastereomer CYD-1-78-1 was determined by utilizing an Cai^++ release assay in live cells in which Cai^++ levels can be regarded as an outcome measure of activation of the 5-HT2CR signaling pathway (Berg et al., Neuropharmacology 55, 969-76, 2008). […] In addition, 1 nM of compound CYD-1-78-2 enhanced the Cai^++ response at low concentrations of 5-HT [10^11-3×10^−10 M; F(15,55)=16.73, p<0.01; FIG. 2]. […] Neither compound CYD-1-78-2 [F(10,68)=0.81, n.s.] nor the diastereomer CYD-1-78-1 [F(10,34)=0.76, n.s.] in concentrations up to 10^−5 M induced Cai^++ release in the 5-HT2CR—CHO cells in the absence of 5-HT (FIG. 3). This profile for compounds CYD-1-78-2 and −1 in 5-HT2CR—CHO cells was distinguished from that seen in 5-HT2AR—CHO cells in which neither compound alone or in the presence of 5-HT (compound CYD-1-78-1, F(10,43)=0.78; compound CYD-1-78-2, F(10,55)=1.27; FIG. 4) altered Cai^++ release (Ding et al., ACS Chem. Neurosci. 3, 538-545, 2012).
The Chinese hamster ovary (CHO) cell line stably transfected with 5-HT2CR was a generous gift of K. Berg and W. Clarke (University of Texas Health Science Center, San Antonio) (K. A. Berg, W. P. Clarke, C. Sailstad, A. Saltzman and S. Maayani, Mol. Pharmacol. 1994, 46 (3), 477-484; Ding et al., ACS Chem. Neurosci. 3, 538-545, 2012). Cells were grown at 37° C., 5% CO2 and 85% relative humidity in GlutaMax α-MEM (Invitrogen, Carlsbad Calif.), 5% fetal bovine serum (Atlanta Biologicals, Atlanta Ga.), 100 μg/mL hygromycin (Mediatech, Manassas Va.) and were passaged when they reached 80% confluence.
Changes in Cai^++ levels were determined using the calcium sensitive dye Calcium 4 (FLIPR No-wash kit, Molecular Devices, Sunnyvale, Calif., part #R8142). Cells were plated in serum-replete medium at 20,000 cells/well in black-sided, clear bottom 96-well tissue culture plates and were fed ˜24 hrs later with serum-free medium. Following overnight incubation, medium was removed and replaced with 40 μL of fresh serum-free medium plus 40 μL Calcium 4 dye solution in Hank's balanced saline solution (HBSS, without CaCl2 or MgCl2) supplemented with 2.5 mM water soluble probenicid (Invitrogen) to inhibit extracellular transport of the dye. Plates were incubated for 60 min at 37° C. and 60 min at room temperature in the dark. Fluorescence (λex=485 nm, λem=525 nm) was measured with a FlexStation3 (Molecular Devices). A baseline was established for each well during the initial segment of each run. Addition of 20 μL of 5× concentrated tested compound occurred at 17 sec and fluorescence was recorded every 1.7 sec for 90 sec to determine any innate agonist activity. This first round of 90 sec recordings provided a 20 min preincubation period. […] Maximum peak height was determined by the FlexStation software (SoftMax Pro 5.2) for each well and was normalized to vehicle control.

[1] = Solubility of representative compounds (Table 1); format: physicochemical; details: solvents listed

effect on 5-HT-induced Cai++ release (5-HT2CR; positive allosteric modulation): enhanced; also recorded: potentiated | EC50 (5-HT2CR; 5-HT-induced Cai++ release): 8 ± 4 nM | Solubility [1]: EtOH, DMSO
Compound: CS[C@H]1OC([C@@H](NC(=O)C2CNCCN2c2ccccc2)[C@H](C)Cl)[C@H](O)[C@H](O)[C@H]1O (stereo partly drawn) [CYD-1-82, 1-Phenyl-piperazine-2-carboxylic acid [2-chloro-1-(3,4,5-trihydroxy-6-methylsulfanyl-tetrahydro-pyran-2-yl)-propyl]amide]
